Reference: BindingDB's records for patent US20250213705 (Bright Peak Therapeutics, 2025)

Experiments:
[1] = target: T1, Glutamate carboxypeptidase 2 (Homo sapiens, UniProt Q04609); assay: Inhibition Assay
Method: Prepare a working solution of 100 μM Amplex Red reagent containing 0.25 U/mL HRP, 0.08 U/mL L-glutamate oxidase, 0.5 U/mL 1-glutamate-pyruvate transaminase, 200 μM L-alanine and keep protected from light. […] Final concentration is 5 nM. Transfer 10 μl/well of the inhibitor solution previously prepared in a separate 96 wells/plate. […] Incubate the reactions for 30 min at 37° C., protected from light. Because the assay is continuous (not terminated), fluorescence may be measured at multiple time points to follow the kinetics of the reactions. Measure the fluorescence in a fluorescence microplate reader using excitation in the range of 530-560 nm and emission detection at ˜590 nm. Ec50s were determined with GraphPad Prism. Ki is calculated based on Cheng-Prusoff equation.

[2] = target: T1, Glutamate carboxypeptidase 2; assay: SPR Analysis
Method: The interaction of PSMA-binding variants with human FOLH1 was measured with Surface Plasmon Resonance (SPR) technology. Biotinylated FOLH1 was captured at a concentration of 30 μg/mL onto a Streptavidin chip. […] After each cycle, needles were washed with 50% DMSO. To measure the association to the FOLH1 protein, the samples were injected with a flow rate of 30 μL/min for 90 s, followed by 1200 s buffer only to detect the dissociation. The used running buffer was 1×PBS with 0.05% Tween20 and 2% DMSO. The relative response units (RU, Y-axis) are plotted against time (s, X-axis) and analyzed in a kinetic 1:1 binding model. In a different setup, biotinylated FOLH1 was captured at a concentration of 0.8 μg/mL and the running buffer was 1×PBS with 0.05% Tween20.

T1 sequence (Q04609 whole entry): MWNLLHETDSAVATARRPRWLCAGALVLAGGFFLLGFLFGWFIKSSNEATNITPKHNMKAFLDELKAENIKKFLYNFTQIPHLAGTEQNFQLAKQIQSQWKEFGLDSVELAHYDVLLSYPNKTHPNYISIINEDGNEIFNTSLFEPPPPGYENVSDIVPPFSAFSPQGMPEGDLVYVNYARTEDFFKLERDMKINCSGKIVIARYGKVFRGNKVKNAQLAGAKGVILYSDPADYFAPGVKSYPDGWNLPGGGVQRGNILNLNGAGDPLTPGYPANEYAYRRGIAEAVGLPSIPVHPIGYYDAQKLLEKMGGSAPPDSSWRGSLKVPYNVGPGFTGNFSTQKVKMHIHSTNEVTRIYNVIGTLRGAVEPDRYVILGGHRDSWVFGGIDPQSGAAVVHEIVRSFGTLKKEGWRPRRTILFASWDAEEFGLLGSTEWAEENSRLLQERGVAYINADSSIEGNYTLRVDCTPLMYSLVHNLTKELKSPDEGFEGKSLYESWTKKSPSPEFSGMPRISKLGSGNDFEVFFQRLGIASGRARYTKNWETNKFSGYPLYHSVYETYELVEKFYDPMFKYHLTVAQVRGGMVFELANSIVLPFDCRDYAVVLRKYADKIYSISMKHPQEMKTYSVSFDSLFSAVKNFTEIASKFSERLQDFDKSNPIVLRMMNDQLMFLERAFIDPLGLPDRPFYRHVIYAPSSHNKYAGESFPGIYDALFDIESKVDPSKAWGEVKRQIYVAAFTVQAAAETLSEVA

SMILES | IC50 [1] [nM] | Ki [1] [nM] | Kd [2] [nM]
CC(=O)NCCOCCOCCOCCC(=O)N1C[C@H](NC(=O)CCCOc2cc(C#N)cc(C#N)c2)C[C@H]1C(=O)N[C@@H](Cc1ccc2ccccc2c1)C(=O)NCCCC[C@H](NC(=O)N[C@@H](CCC(=O)O)C(=O)O)C(=O)O [US20250213705, Compound 80] | 2.35 | 0.017 | 2.46
CC(=O)NCCOCCOCCOCCC(=O)N[C@@H]1C[C@@H](C(=O)NCC(=O)N[C@@H](Cc2ccc3ccccc3c2)C(=O)NCCCC[C@H](NC(=O)N[C@@H](CCC(=O)O)C(=O)O)C(=O)O)N(C(=O)CCCOc2cc(C#N)cc(C#N)c2)C1 [US20250213705, Compound 92] | 79.7 | 0.57 | 1.01
CC(=O)NCCOCCOCCOCCC(=O)NC[C@H]1CC[C@H](C(=O)N[C@@H](CCCCNC(=O)C(F)(F)F)C(=O)NCCCC[C@H](NC(=O)N[C@@H](CCC(=O)O)C(=O)O)C(=O)O)CC1 [US20250213705, Compound 54] | 89 | 0.636 | –
CC(=O)NCCOCCOCCOCCC(=O)N1C[C@H](NC(=O)CCCOc2cc(C#N)cc(C#N)c2)C[C@H]1C(=O)NCC(=O)N[C@@H](Cc1ccc2ccccc2c1)C(=O)NCCCC[C@H](NC(=O)N[C@@H](CCC(=O)O)C(=O)O)C(=O)O [US20250213705, Compound 91] | 26.1 | 0.187 | 3.6
CC(=O)NCCOCCOCCOCCC(=O)N[C@@H](Cc1ccc(C(=O)O)cc1)C(=O)NCC(=O)N[C@@H](Cc1ccc2ccccc2c1)C(=O)NCCCC[C@H](NC(=O)N[C@@H](CCC(=O)O)C(=O)O)C(=O)O [US20250213705, Compound 94] | 1.87 | 0.013 | 2.33
CC(=O)NCCOCCOCCOCCC(=O)NC[C@H]1CC[C@H](C(=O)N[C@@H](Cc2ccc3ccccc3c2)C(=O)NCCCC[C@H](NC(=O)N[C@@H](CS)C(=O)O)C(=O)O)CC1 [US20250213705, Compound 28] | 21300 | 152 | –
CC(=O)NCCOCCOCCOCCC(=O)NC[C@H]1CC[C@H](C(=O)N[C@@H](Cc2ccc3ccccc3c2)C(=O)NCCCC[C@H](NC(=O)N[C@@H](CC(=O)O)C(=O)O)C(=O)O)CC1 [US20250213705, Compound 23] | 7010 | 50.1 | 120
CC(=O)NCCOCCOCCOCCC(=O)N[C@@H](Cc1cccc(C(=O)O)c1)C(=O)NCC(=O)N[C@@H](Cc1ccc2ccccc2c1)C(=O)NCCCC[C@H](NC(=O)N[C@@H](CCC(=O)O)C(=O)O)C(=O)O [US20250213705, Compound 84] | 5.11 | – | 1.05
CC(=O)NCCOCCOCCOCCC(=O)N(CCCOc1cc(C(F)(F)F)cc(C(F)(F)F)c1)CC(=O)N[C@@H](Cc1ccc2ccccc2c1)C(=O)NCCCC[C@H](NC(=O)N[C@@H](CCC(=O)O)C(=O)O)C(=O)O [US20250213705, Compound 86] | 59.2 | 0.423 | 1.17
CC(=O)NCCCC[C@H](NC(=O)[C@H]1CC[C@H](CNC(=O)CCOCCOCCOCCNC(C)=O)CC1)C(=O)NCCCC[C@H](NC(=O)N[C@@H](CCC(=O)O)C(=O)O)C(=O)O [US20250213705, Compound 83] | 2.87 | 0.021 | –
CC(=O)NCCOCCOCCOCCC(=O)N(CCCOc1cc(C#N)cc(C#N)c1)CC(=O)N[C@@H](Cc1ccc2ccccc2c1)C(=O)NCCCC[C@H](NC(=O)N[C@@H](CCC(=O)O)C(=O)O)C(=O)O [US20250213705, Compound 78] | 6.95 | 0.05 | 0.43
CC(=O)NCCOCCOCCOCCC(=O)N[C@@H]1C[C@@H](C(=O)N[C@@H](Cc2ccc3ccccc3c2)C(=O)NCCCC[C@H](NC(=O)N[C@@H](CCC(=O)O)C(=O)O)C(=O)O)N(C(=O)COc2cc(C#N)cc(C#N)c2)C1 [US20250213705, Compound 81] | 10.7 | 0.076 | 4.12
